≈ marks a conversion by molar mass, not a printed value. Where two headings read alike, the source gives them in different places.
Experiments:
[1] = test system: Pseudomonas sp.; experiment: In vitro activity against fish bacterial pathogens, tube dilution (Experiment 13); type: cell-based; conditions: tryptose broth, overnight, 37°C., read-out: minimum inhibitory concentration (MIC), Pseudomonas
[2] = test system: Salmonella dublin; experiment: In vivo activity against Salmonella dublin in calves (Experiment 11)
Method: The in vivo activity of compound 1 against Salmonella dublin was determined in the following manner.
The calves for the in vivo experiment were purchased from a commercial source. Thirty-two calves were brought to the research facility where they were weighed individually and identified by ear tag. Each calf weighed about 90 pounds. The calves were then randomly divided by weight into eight groups of four calves each. Rectal swabs for Salmonella dublin and Escherichia coli isolation were obtained before treatment was started.
Four groups of four calves each were treated with the test compound. Treatment was started 24 hours after challenge with Salmonella dublin and continued for six consecutive days. Treatment was accomplished by oral administration twice daily of gelatin capsules of test compound 1. During the treatment, rectal swabs were taken daily of each calf and bacterial isolations for salmonella species were run. At the end of the trial, rectal swabs for E. coli and salmonella species were taken again. The trials were terminated the day following the last treatment, at which time the calves were weighed and sacrificed.
In the chart, column 1 records the dose rate/day/calf; column 2, the dose rate in mg./lb.; column 3, the survival ratio observed; and column 4, the occurrence of salmonella isolates obtained at necropsy.

[3] = Growth promotion efficacy in broiler chicks (Experiment 7); type: in vivo; conditions: for F/G (feed conversion) / Wt. Gn. (average weight gain) / % Impr. in feed conversion / % Impr. in weight gain: 21 days; for % Impr. in feed conversion / % Impr. in weight gain: compared to contemporary control
Text: 5-Amino-1-methyl-3-(1-methyl-5-nitro-2-imidazolyl)pyrazole-4-carbonitrile, compound 1, was fed to broiler chicks to evaluate its growth promotion efficacy.
The compound was fed at levels of 10, 25 and 50 g./ton of typical broiler rations (set forth below) to a total of 120 replicates of 8 birds each in four time-replicated studies.
All the birds in the tests were pre-brooded for seven days in floor pens before being placed on treatment. The treatment period extended for 21 days in starter batteries. Feed and water were provided ad libitum at all times. A nontreated feed was fed during the pre-brood period.
The results of the studies are presented in Chart 8. In the chart, column 1 gives the identification of the test compound; column 2, the level of administration of the test compound in the feed; column 3, the number of replicates per treatment; column 4, the average weight gain in grams; column 5, the percent improvement in weight gain; column 6, the feed conversion, which is the ratio of the feed consumed (F) to the weight gained (G); and column 7, the percent improvement in feed conversion.
All 10 and 50 g. data were obtained using Diet 1. The 25 g. data were obtained using Diet 1 (25%) and Diet 2 (75%).

[4] = test system: Treponema hyodysenteriae
[5] = test system: Salmonella typhimurium; experiment: Activity against Salmonella typhimurium in chicks when administered in the feed (Experiment 4); type: in vivo; conditions: for Final Avg. Chicken Wt.: tenth day
Method: The activity of certain of the nitroimidazoles against Salmonella typhimurium in chicks when administered in the feed was determined.
One-day-old chicks, divided into groups of 12, were given compound 1, 6, or 7 in the feed at levels of 100 g. per ton, 50 g. per ton, 25 g. per ton, and 10 g. per ton continuously throughout the experiments. Several replicates of nonmedicated infected control groups were included. Later on day 1, all replicates were given 50.0 ml. of a tryptose broth culture of S. typhimurium as their initial liquid for drinking. This was placed in the cage waterer and served as the challenge.
Daily records of mortality were maintained and survivors were weighed on the tenth day of the experiment, the day of termination. The compounds tested are identified by the numbers 1, 6, and 7, as set forth hereinabove. In the chart, column 1 lists the test compound; column 2, the dosage level of test compound in grams per ton of feed; column 3 lists the number of replicates run on each compound at each dosage level; column 4 lists the survival ratio; and column 5, the final average chicken weight.

[6] = 100 mg./day oral (1.25 mg./lb.)
[7] = 25 g./t. fed, Diet 1 (25%) and Diet 2 (75%)
[8] = 100 g./ton in feed, all medicated pigs

## Cn1nc(-c2ncc([N+](=O)[O-])n2C)c(C#N)c1N [Compound 1, 5-Amino-1-methyl-3-(1-methyl-5-nitro-2-imidazolyl)pyrazole-4-carbonitrile]
[1]
  MIC: 6.25 µg/mL (≈ 25.3 µM)
[2]; [6]
  Salmonella isolates at necropsy: 1/4
  Survival Ratio: 4/4
[2]; 250 mg./day oral (2.5 mg./lb.)
  Salmonella isolates at necropsy: 2/4
  Survival Ratio: 4/4
[2]; 500 mg./day oral (5 mg./lb.)
  Salmonella isolates at necropsy: 1/4
  Survival Ratio: 4/4
[2]; 1000 mg./day oral (11 mg./lb.)
  Salmonella isolates at necropsy: 0/4
  Survival Ratio: 4/4
[2]; at termination of the trial
  salmonella isolates from organs of treated calves: reduced number of salmonella isolates
[2]; compound 1 oral, about 100 to about 1000 mg./day/calf
  control of Salmonella dublin in calves: effective in controlling Salmonella dublin in calves
[3]; 10 g./t. fed, Diet 1
  F/G (feed conversion): 1.580
  Wt. Gn. (average weight gain): 580 g
[3]; 10 g./t. fed
  % Impr. in feed conversion: 2.35%
  % Impr. in weight gain: 4.50%
[3]; [7]
  F/G (feed conversion): 1.751
  Wt. Gn. (average weight gain): 468 g
[3]; 25 g./t. fed
  % Impr. in feed conversion: 4.68%
  % Impr. in weight gain: 6.12%
[3]; 50 g./t. fed, Diet 1
  F/G (feed conversion): 1.578
  Wt. Gn. (average weight gain): 564 g
[3]; 50 g./t. fed
  % Impr. in feed conversion: 4.54%
  % Impr. in weight gain: 3.87%
[3]; oral to chicks, compound 1 at about 10 to about 50 g. per ton of feed
  growth promoter effectiveness: effective as a growth promoter
[4]; 100 g./ton in feed
  blood and/or mucus in the colon at necropsy: not found in the colon of any pig
[4]; 100 g./ton in feed, Group 1
  Days with Blood and Mucus in Pen: 0
  Days with Diarrhea in Pen: 0
  Initial Wt. (at time of challenge): 35.3
  Mortality (No. Died): 0
[4]; 100 g./ton in feed, Group 1, day 7
  Avg. Wt. of Pigs, Survivors: 43.3
[4]; 100 g./ton in feed, Group 1, day 14
  Avg. Wt. of Pigs, Survivors: 51.0
[4]; 100 g./ton in feed, Group 1, day 19
  Avg. Wt. of Pigs, Survivors: 57.3
[4]; 100 g./ton in feed, Group 1, killed 19 days post-challenge
  Avg. Gain (Survivors) From Day Of Challenge: 22.0 lb.
[4]; 100 g./ton in feed, Group 2
  Days with Blood and Mucus in Pen: 0
  Days with Diarrhea in Pen: 0
  Initial Wt. (at time of challenge): 35.3
  Mortality (No. Died): 0
[4]; 100 g./ton in feed, Group 2, day 7
  Avg. Wt. of Pigs, Survivors: 42.1
[4]; 100 g./ton in feed, Group 2, day 14
  Avg. Wt. of Pigs, Survivors: 50.0
[4]; 100 g./ton in feed, Group 2, day 21
  Avg. Wt. of Pigs, Survivors: 59.7
[4]; 100 g./ton in feed, Group 2, day 28
  Avg. Wt. of Pigs, Survivors: 71.2
[4]; 100 g./ton in feed, Group 2, killed 28 days post-challenge
  Avg. Gain (Survivors) From Day Of Challenge: 35.9 lb.
[4]; [8]
  deaths during the trial: None of the pigs receiving the test compound died
  diarrhea: not detected
[4]; 100 g./ton in feed, whole trial
  mucus and blood in feces: not observed at any time during the trial
[4]; 100 g./ton in feed, overall conclusion
  control of induced swine dysentery: highly effective
[4]; compound 1 in the feed about 100 g./ton
  control of Treponema hyodysenteriae in swine: effective in the control of Treponema hyodysenteriae in swine
[4]; pig, in vivo
  slight areas of hemorrhage in the colon and/or stomach: seen in most of the pigs
[4]; replicate 2, unmedicated ration day 17 until day 28
  recurrence of swine dysentery: not observed
[5]; 10 g./ton in feed
  Survival Ratio: 28/36
  Final Avg. Chicken Wt.: 97 g
[5]; 25 g./ton in feed
  Survival Ratio: 36/36
  Final Avg. Chicken Wt.: 121 g
[5]; 50 g./ton in feed
  Survival Ratio: 36/36
  Final Avg. Chicken Wt.: 116 g
[5]; 100 g./ton in feed
  Survival Ratio: 35/36
  Final Avg. Chicken Wt.: 105 g

## CCCCOC=Nc1c(C#N)c(-c2ncc([N+](=O)[O-])n2C)nn1C [Compound 7, Butyl N-[4-Cyano-1-methyl-3-(1-methyl-5-nitro-2-imidazolyl)-pyrazol-5-yl]formimidate]
[5]; 10 g./ton in feed
  Survival Ratio: 25/36
  Final Avg. Chicken Wt.: 100 g
[5]; 25 g./ton in feed
  Survival Ratio: 34/36
  Final Avg. Chicken Wt.: 117 g
[5]; 50 g./ton in feed
  Survival Ratio: 36/36
  Final Avg. Chicken Wt.: 121 g
[5]; 100 g./ton in feed
  Survival Ratio: 33/36
  Final Avg. Chicken Wt.: 102 g

## COC=Nc1c(C#N)c(-c2ncc([N+](=O)[O-])n2C)nn1C [Compound 6, Methyl N-[4-cyano-1-methyl-3-(1-methyl-5-nitro-2-imidazolyl)pyrazol-5-yl]formimidate]
[5]; 10 g./ton in feed
  Survival Ratio: 33/36
  Final Avg. Chicken Wt.: 110 g
[5]; 25 g./ton in feed
  Survival Ratio: 36/36
  Final Avg. Chicken Wt.: 119 g
[5]; 50 g./ton in feed
  Survival Ratio: 35/36
  Final Avg. Chicken Wt.: 125 g
[5]; 100 g./ton in feed
  Survival Ratio: 33/36
  Final Avg. Chicken Wt.: 101 g

— patent US3980794A, “Method for promoting growth of poultry with 3-(5-nitro-2-imidazolyl)pyrazoles” (Eli Lilly and Company, priority 1975, dated 1976)
